Reference: patent US5684151A, “1-arylsulphonyl, arylcarbonyl and 1-arylphosphonyl-3-phenyl-1,4,5,6-tetrahydropyridazines” (priority 1995, dated 1997)
pIC50: −log10 of the molar value. Like-named read-outs stand apart in the source and are kept apart here.

Key:
[1] = test system: mouse (MC3T3-E1) and human (TE-85) osteoblast-line cells; assay type: cell-based
Outline: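 Proliferation was read as ^3H-thymidine (0.4 μCi) uptake during a 4 h pulse, which started 20 h after compound addition. Before dosing, cells sat 24 h in 0.1% FBS. Values are % times control (100%).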

[2] = biological target: T1, progestin receptor from rabbit uterus (Oryctolagus cuniculus, UniProt P06186); test: Progestin receptor binding (3H-R5020 displacement); conditions: rabbit uterine cytosol, 4° C., 18 h, read-out: IC50: Binding affinity for the progestin receptor from rabbit uterus
T1 construct: Cytosolic progestin receptor were obtained by mixing rabbit uterine tissue with a Tris buffer; from tissue; host or cells: rabbit uterus cytosol
Outline: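 Displacement of the radioligand 3H-R5020 was measured in cytosol from homogenized rabbit uterus (pH 7.4 Tris/EDTA/DTT/molybdate buffer), with compounds at 5% final DMSO and about 18 h at 4 °C. Charcoal removed free ligand, scintillation counting quantified bound ligand, and IC50 was the concentration displacing half.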

T1 sequence (P06186 whole entry): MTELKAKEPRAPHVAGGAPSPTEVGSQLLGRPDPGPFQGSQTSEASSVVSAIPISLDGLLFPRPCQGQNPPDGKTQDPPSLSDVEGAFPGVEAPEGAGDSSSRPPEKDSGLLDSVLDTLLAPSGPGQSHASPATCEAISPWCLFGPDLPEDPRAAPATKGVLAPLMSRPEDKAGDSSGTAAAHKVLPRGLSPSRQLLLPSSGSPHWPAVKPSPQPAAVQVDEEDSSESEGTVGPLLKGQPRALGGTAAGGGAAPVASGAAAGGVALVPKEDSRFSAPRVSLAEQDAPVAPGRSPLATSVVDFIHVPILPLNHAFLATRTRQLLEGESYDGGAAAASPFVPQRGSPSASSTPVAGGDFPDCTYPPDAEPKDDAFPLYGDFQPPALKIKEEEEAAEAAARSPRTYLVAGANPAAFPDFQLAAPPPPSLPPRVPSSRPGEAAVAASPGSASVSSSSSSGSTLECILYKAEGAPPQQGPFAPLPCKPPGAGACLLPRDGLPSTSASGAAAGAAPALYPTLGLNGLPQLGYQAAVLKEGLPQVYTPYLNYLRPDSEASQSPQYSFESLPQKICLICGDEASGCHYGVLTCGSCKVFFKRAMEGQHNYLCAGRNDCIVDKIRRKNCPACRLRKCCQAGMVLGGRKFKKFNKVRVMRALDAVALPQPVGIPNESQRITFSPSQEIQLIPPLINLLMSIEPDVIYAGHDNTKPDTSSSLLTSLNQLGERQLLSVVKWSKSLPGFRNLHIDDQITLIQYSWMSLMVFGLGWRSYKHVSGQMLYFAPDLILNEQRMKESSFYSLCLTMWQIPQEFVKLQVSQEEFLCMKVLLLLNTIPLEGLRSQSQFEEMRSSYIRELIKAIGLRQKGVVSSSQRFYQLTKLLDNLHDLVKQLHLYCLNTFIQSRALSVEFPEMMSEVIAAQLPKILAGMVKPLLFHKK

Compound	Osteoblast Cell Proliferation, 3H-thymidine incorporation vs control (100%) ([1]; 10^-6)	Osteoblast Cell Proliferation, 3H-thymidine incorporation vs control (100%) ([1]; 10^-7)	Osteoblast Cell Proliferation, 3H-thymidine incorporation vs control (100%) ([1]; 10^-8)	Osteoblast Cell Proliferation, 3H-thymidine incorporation vs control (100%) ([1]; 10^-9)	Osteoblast Cell Proliferation, 3H-thymidine incorporation vs control (100%) ([1]; 10^-10)	pIC50 [2]
O=S(=O)(c1c(F)c(F)c(F)c(F)c1F)N1CCCC(c2ccc(F)cc2)=N1 [Compound 152, 3-(4-Fluorophenyl)-1-(pentafluorobenzenesulfonyl)-1,4,5,6-tetrahydropyridazine]	87%	123%	124%	149%	161%	6.76
Nc1ccc(S(=O)(=O)N2CCCC(c3ccc(Cl)cc3)=N2)cc1 [Compound 153, 1-(4-Aminobenzenesulfonyl)-3-(4-chlorophenyl)-1,4,5,6-tetrahydropyridazine]	85%	115%	83%	99%	103%	6.20
CC(=O)Nc1ccc(S(=O)(=O)N2CCCC(c3ccc(Cl)cc3)=N2)cc1 [Compound 154]	97%	111%	107%	124%	115%	6.09
Cc1ccc(S(=O)(=O)N2N=C(c3ccccc3)CC3CCCC32)cc1 (stereo not drawn) [Compound 156, 4,4a,5,6,7,7a-Hexahydro-3-phenyl-1-(4-methylbenzenesulfonyl)-1H-cyclopenta[c]pyridazine]	127%	124%	126%	136%	183%	6.00
Cc1ccc(S(=O)(=O)N2N=C(c3ccccc3)CC3C4C5C=CC(C5)C4CC32)cc1 (stereo not drawn) [Compound 157, 1,4,4a,9a-Tetrahydro-1-(4-methylbenzenesulfonyl)-3-phenyl-bicyclo[2.2.1]hept-7-enyl[5.6-a]cyclopenta-[1.2-e]pyridazine]	107%	108%	113%	111%	128%	6.12
Cc1ccc(S(=O)(=O)N2N=C(c3ccccc3)CC3Cc4ccccc4C32)cc1 (stereo not drawn) [Compound 158, 1,4,4a,9a,-Tetrahydro-4-(4-methylbenzenesulfonyl)-2-phenyl-3,4-diazafluorene Hemihydrate]	105%	102%	122%	114%	119%	5.52
COC12CCCCC1CC(c1ccccc1)=NN2S(=O)(=O)c1ccc(C)cc1 (stereo not drawn) [Compound 159, 1,4,4a,5,6,7,8,8a-Octahydro-8a-methoxy-1-(4-methyl-benzenesulfonyl)-3-phenyl-1,2-diazanapthalene]	97%	100%	91%	97%	105%	5.86
Cc1ccc(S(=O)(=O)N2N=C(c3cccc(Br)c3)CC3C4C5C=CC(C5)C4CC32)cc1 (stereo not drawn) [Compound 161, 1,4,4a,9a-Tetrahydro-1-(4-methylbenzenesulfonyl)-3-(3bromophenyl)bicyclo[2.2.1]hept-7-enyl[5.6-a]cyclopenta[1.2-e]pyridazine]	76%	95%	113%	122%	112%	5.52
O=S(=O)(/C=C/c1ccccc1)N1CCCC(c2ccc(Cl)c(Cl)c2)=N1 [Compound 167]	126%	109%	136%	144%	165%	8.23
O=S(=O)(/C=C/c1cccc(Cl)c1)N1CCCC(c2ccc(Cl)c(Cl)c2)=N1 [Compound 172]	134%	108%	103%	106%	113%	7.49
COc1ccc(C(=O)N2CCCC(c3ccc(OC)cc3)=N2)cc1 [Compound 182]	95%	108%	118%	139%	115%	4.00
COc1ccc(C(=O)N2CCCC(c3ccccc3)=N2)cc1 [Compound 183]	88%	133%	131%	136%	135%	4.00
COc1ccc(C2=NN(C(=O)c3ccc(Cl)cc3)CCC2)cc1 [Compound 184]	84%	102%	113%	146%	131%	4.00
COc1ccc(C2=NN(C(=O)c3cccc(Cl)c3)CCC2)cc1 [Compound 188]	105%	129%	130%	135%	137%	4.00
COc1ccc(C2=NN(C(=O)c3ccc(Cl)c(Cl)c3)CCC2)cc1 [Compound 189]	89%	112%	98%	122%	128%	4.00
